Laboratory results reported in PubChem BioAssay (NCI).
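Assay format: 96-well plates, 48-hour exposure. TGI denotes the concentration required for complete inhibition of growth.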

Key:
Test in all cases: NCI anticancer screen, dose series, 48 h
786-0 renal = system: 786-0 renal
HOP-62 NSCLC = system: HOP-62 NSCLC
IGROV1 ovarian = system: IGROV1 ovarian
K-562 leukemia = system: K-562 leukemia
MOLT-4 leukemia = system: MOLT-4 leukemia
NCI-H226 lung = system: NCI-H226 lung
NCI-H522 lung = system: NCI-H522 lung
PC-3 prostate = system: PC-3 prostate
SK-MEL-2 melanoma = system: SK-MEL-2 melanoma
HOP-92 NSCLC = system: HOP-92 NSCLC

Row | SMILES | TGI (786-0 renal) | TGI (HOP-62 NSCLC) | TGI (IGROV1 ovarian) | TGI (K-562 leukemia) | TGI (MOLT-4 leukemia) | TGI (NCI-H226 lung) | TGI (NCI-H522 lung) | TGI (PC-3 prostate) | TGI (SK-MEL-2 melanoma) | TGI (HOP-92 NSCLC)
1 | S=C(Nc1ccccn1)Nc1ccccc1Cl | > 100 µM | > 100 µM | > 67 µM | > 100 µM | > 100 µM | > 100 µM | 37.9 µM | > 100 µM | > 100 µM | –
2 | CC[C@@]12C=CC(=S)N(CCSc3ccccc3)[C@@H]1c1c(n(S(=O)(=O)c3ccc(OC)cc3)c3ccccc13)CC2 | > 100 µM | > 100 µM | – | > 100 µM | > 100 µM | – | > 100 µM | > 100 µM | > 100 µM | > 100 µM
3 | CC(=O)Oc1ccc(/C=C/C(=O)O[C@H]2CCCC[C@@H]2OC(=O)/C=C/c2ccc(OC(C)=O)c(OC(C)=O)c2)cc1OC(C)=O | 36 µM | 32.2 µM | 64.9 µM | > 100 µM | 34.8 µM | – | 22.3 µM | > 100 µM | 53.1 µM | 33.7 µM
4 | O=c1c2ccccc2[nH]c2cc(O)cc(O)c12 | – | – | > 100 µM | > 100 µM | > 100 µM | > 100 µM | 86.3 µM | – | > 100 µM | –
5 | O=C1C(NCCN2CCOCC2)=C(Cl)C(=O)c2ncccc21 | 1.6 µM | 3.63 µM | 2.3 µM | – | 5.69 µM | 3.64 µM | – | 1.95 µM | 1.11 µM | 5.76 µM
6 | NS(=O)(=O)c1nnc(NS(=O)(=O)c2ccccc2C(=O)O)s1 | > 100 µM | > 100 µM | – | > 100 µM | > 100 µM | > 100 µM | > 100 µM | – | > 100 µM | > 100 µM
7 | CC(NC(C#N)CC12CC3CC(CC(C3)C1)C2)c1ccccc1 (stereo unspecified) | – | > 100 µM | > 100 µM | > 100 µM | > 100 µM | – | > 100 µM | > 100 µM | – | 31.5 µM
8 | Oc1ccc(O)c(CNc2ccccc2)c1 | 26.1 µM | – | 33.4 µM | > 100 µM | > 100 µM | 78.4 µM | 6.65 µM | 30 µM | 82.2 µM | 20.8 µM
9 | NC1(C(=O)O)CCCC1 | – | > 625 µM | > 625 µM | > 625 µM | > 625 µM | > 625 µM | > 625 µM | – | > 625 µM | > 625 µM
10 | C[C@]1(O)O[C@@H]2OCC[C@@H]2C2=C1C(=O)c1ccccc1C2=O | 28.8 µM | 26.7 µM | 27.2 µM | 59.5 µM | > 100 µM | – | 31.6 µM | 54.8 µM | 32 µM | 31 µM
11 | C=C1C(=O)O[C@@H]2[C@H](O)[C@@H](C)[C@@H]3C=CC(=O)[C@@]3(C)[C@H](OC(=O)C=C(C)C)[C@H]12 | – | 11.4 µM | 4.48 µM | 0.518 µM | 0.725 µM | 4.17 µM | 0.4 µM | – | 2.84 µM | 2.21 µM
12 | O=C1c2ccccc2C(=O)c2c(O)ccc(O)c21 | > 100 µM | > 100 µM | > 100 µM | > 100 µM | > 100 µM | – | > 100 µM | – | > 100 µM | > 100 µM
13 | O=C1CCCC2=C1CC1=C(CCCC1=O)N2c1ccccc1 | > 100 µM | – | > 100 µM | > 100 µM | > 100 µM | > 100 µM | – | > 100 µM | – | > 100 µM
14 | O=[N+]([O-])c1c2nc3n(c2cc2c1nc1n2CCC1)CCC3 | > 100 µM | > 100 µM | > 100 µM | > 100 µM | > 100 µM | > 100 µM | > 100 µM | > 100 µM | – | > 100 µM
15 | CS(=O)(=O)OCCCOS(C)(=O)=O | > 100 µM | > 100 µM | > 100 µM | > 100 µM | > 100 µM | > 100 µM | > 100 µM | – | > 100 µM | > 100 µM
16 | COc1ccccc1NC(=O)O/N=C(/Cl)C(C)C | 24.9 µM | 17.1 µM | 32.7 µM | 10.9 µM | 4.5 µM | 41.5 µM | 3.37 µM | 33.2 µM | 31 µM | –
17 | COc1cc(C2c3cc4c(cc3[C@@H](Nc3cccc([N+](=O)[O-])c3)C3COC(=O)[C@H]23)OCO4)cc(OC)c1O (stereo partly specified) | – | 3.31 µM | > 84.4 µM | > 40.5 µM | 3.37 µM | 7.94 µM | 11.7 µM | – | 36.5 µM | 27.7 µM
18 | COc1ccc(Oc2nc(C#CC(C)(C)O)nc(Oc3ccc(OC)cc3)n2)cc1 | – | 62.1 µM | 18.9 µM | > 100 µM | – | – | 9.36 µM | 7.69 µM | 22.8 µM | –
19 | CC(Cc1ccccc1)NC1=NCCO1 (stereo unspecified) | – | > 100 µM | > 100 µM | – | 77.9 µM | > 100 µM | > 100 µM | > 100 µM | > 100 µM | 69.1 µM
20 | O=C(OCc1ccccc1)N1CCN(C(=O)OCc2ccccc2)CCN(C(=O)OCc2ccccc2)CCN(C(=O)OCc2ccccc2)CCN(C(=O)OCc2ccccc2)CC1 | 48.4 µM | > 100 µM | – | – | > 100 µM | > 100 µM | > 100 µM | > 100 µM | > 100 µM | > 100 µM
21 | Cc1nc2ccccc2n1Cc1nnc(N)o1 | > 100 µM | > 100 µM | > 100 µM | > 100 µM | > 100 µM | – | > 100 µM | > 100 µM | > 100 µM | > 100 µM
22 | N#Cc1ccc(Oc2nc3ccc(C(F)(F)F)cc3nc2-c2ccccc2)cc1 | 30.8 µM | 36 µM | 41.3 µM | 55.9 µM | 43.6 µM | – | 32.2 µM | 27 µM | 36.9 µM | 27.5 µM
23 | CC(=O)O[C@H]1[C@@H](OC(C)=O)C(C)(C)/C=C/[C@H](C)C(=O)[C@@]2(OC(C)=O)C[C@@](C)(OC(C)=O)[C@H](OC(C)=O)[C@@H]2[C@H]2OC(=O)CC[C@@]2(OC(=O)c2ccccc2)[C@@H]1OCC(C)C | – | > 100 µM | > 100 µM | > 100 µM | > 100 µM | > 100 µM | > 100 µM | > 100 µM | > 100 µM | > 100 µM
24 | COc1ccc(/C=N/NC(=O)c2cnc3[nH]c(=O)n(C)c(=O)c3c2)cc1 | > 100 µM | > 100 µM | > 100 µM | > 100 µM | > 100 µM | > 100 µM | – | > 100 µM | > 100 µM | –
